Measurements reported in article PMC2746281 (PLoS ONE, 2009).

Tests used:
[1] = molecular target: T1, Fibroblast growth factor receptor 1 (Homo sapiens, UniProt P11362); assay: Ba/F3 cell proliferation (WST-1), FGFR1; set-up: expressed in transfected cells; host or cells: Ba/F3 (general description; not repeated for this kinase); conditions: Ba/F3 cells expressing the enzyme, read-out: Cell-based assay IC50, Fibroblast growth factor receptor 1
Target sequence in this assay (P11362 22-822): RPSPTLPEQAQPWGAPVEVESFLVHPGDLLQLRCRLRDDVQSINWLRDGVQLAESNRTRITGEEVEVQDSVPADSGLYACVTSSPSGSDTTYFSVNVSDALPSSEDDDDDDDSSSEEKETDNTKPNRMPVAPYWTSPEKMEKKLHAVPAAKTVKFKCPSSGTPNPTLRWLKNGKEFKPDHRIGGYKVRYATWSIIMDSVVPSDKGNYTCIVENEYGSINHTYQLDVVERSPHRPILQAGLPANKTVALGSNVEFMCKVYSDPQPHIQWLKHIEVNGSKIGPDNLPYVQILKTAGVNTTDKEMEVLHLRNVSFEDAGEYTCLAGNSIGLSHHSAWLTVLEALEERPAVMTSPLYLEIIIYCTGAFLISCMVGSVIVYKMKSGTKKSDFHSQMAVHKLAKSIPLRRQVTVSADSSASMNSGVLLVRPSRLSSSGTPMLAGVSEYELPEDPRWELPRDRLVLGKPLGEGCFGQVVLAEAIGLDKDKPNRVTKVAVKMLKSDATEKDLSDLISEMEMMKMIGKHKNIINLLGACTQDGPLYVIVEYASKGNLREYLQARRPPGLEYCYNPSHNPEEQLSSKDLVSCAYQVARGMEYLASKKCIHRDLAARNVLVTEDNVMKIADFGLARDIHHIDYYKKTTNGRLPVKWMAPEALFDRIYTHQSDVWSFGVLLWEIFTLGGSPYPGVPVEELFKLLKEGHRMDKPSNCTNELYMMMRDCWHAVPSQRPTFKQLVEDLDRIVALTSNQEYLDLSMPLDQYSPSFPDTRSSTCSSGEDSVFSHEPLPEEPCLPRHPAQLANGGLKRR

Bmx = molecular target: T2, Bmx (Homo sapiens, UniProt P51813); assay: Recombinant kinase ELISA assay, Bmx; type: biochemical; conditions: recombinant human enzyme; ELISA-based assay, poly(Glu,Tyr 4:1) substrate
T2 construct: Bmx (2–675; BC016652); 6xHN (N); made in house; host or cells: baculovirus, Sf9 insect cells
Protocol: (§1) Full details for the generation of recombinant human KIT intracellular domain and other protein kinases (including Lyn, platelet derived growth factor receptor β, epidermal growth factor receptor, fibroblast growth factor receptor 1, Src, HCK, PYK, FES, Btk, Bmx, c-Ret, c-Fms, Syk, and c-Met) are provided in the Supplemental Methods (see Supporting Information; Methods S1). Experiments on ABL1, Akt1, protein kinase C-α, insulin-like growth factor receptor 1, and Pim1 were carried out by Proqinase (Germany). All other recombinant protein kinases were performed in-house using an enzyme-linked immunoassay; experimental details are provided in the Supplemental Methods (see Supporting Information; Methods S1).
(§2) The sequences encoding PDGF receptor β (residues 554–1106; GenBank accession no. BC032224), Lyn B (2–583; accession no. BC059394), fibroblast growth factor receptor 1 (572–959; accession no. BC018128), Src (2–536; accession no. BC011566), Btk (2–659; accession no. BC109079), Bmx (2–675; accession no. BC016652), c-Ret (713–1114; accession no. BC004257), c-Fms (538–972; BC047531), Syk (2–612; BC011399), Hck (2-526; accession no. BC014435), Fes (2-822; accession no. BC035357), PYK2 (2-1006; accession no. BC042599) and c-Met (949–1398; accession no. lifeseq3489592) were amplified by PCR from IMAGE cDNA clones purchased from Openbiosystems. […]

c-Fms = molecular target: T3, c-Fms (Homo sapiens, UniProt P07333); assay: Recombinant kinase ELISA assay, c-Fms; type: biochemical; conditions: recombinant human enzyme; ELISA-based assay, poly(Glu,Tyr 4:1) substrate
T3 construct: c-Fms (538–972; BC047531); 6xHN (N); made in house; host or cells: baculovirus, Sf9 insect cells
Protocol: as §1, §2

KIT Δ27 (murine) = molecular target: T4, KIT Δ27 (murine) (Mus musculus, UniProt P05532, DEL551-559); assay: Ba/F3 cell proliferation (WST-1), KIT Δ27; conditions: Ba/F3 cells expressing the enzyme, read-out: Cell-based assay IC50, KIT Δ27 (murine)
T4 construct: expressed in transfected cells; host or cells: Ba/F3

[2] = molecular target: T1, Fibroblast growth factor receptor 1; assay: Recombinant kinase ELISA assay, FGFR1; type: biochemical; set-up: fibroblast growth factor receptor 1 (572–959; BC018128); 6xHN (N); made in house; host or cells: baculovirus, Sf9 insect cells; conditions: recombinant human enzyme; ELISA-based assay, poly(Glu,Tyr 4:1) substrate
Protocol: as §1, §2
Target sequence in this assay (P11362 434-822 limits assumed): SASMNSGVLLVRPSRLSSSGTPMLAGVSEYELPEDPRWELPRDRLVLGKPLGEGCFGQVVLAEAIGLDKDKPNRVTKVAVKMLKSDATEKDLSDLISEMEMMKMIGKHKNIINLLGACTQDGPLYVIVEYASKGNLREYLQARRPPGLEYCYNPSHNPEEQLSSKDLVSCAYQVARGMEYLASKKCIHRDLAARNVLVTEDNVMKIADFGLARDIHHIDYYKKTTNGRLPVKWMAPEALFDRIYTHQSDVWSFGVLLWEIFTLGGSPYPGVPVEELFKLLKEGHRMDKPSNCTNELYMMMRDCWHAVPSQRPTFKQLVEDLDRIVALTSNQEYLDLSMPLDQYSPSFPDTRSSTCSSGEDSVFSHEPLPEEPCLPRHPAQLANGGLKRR

[3] = system: human cord-blood-derived mast cells (CBMC); assay: TNF-α release by IgE-anti IgE-activated CBMC (ELISA); type: cell-based; conditions: Mast cell, 4 hours of stimulation
Protocol: (see Supporting Information; Methods S1). […] Assays of β-hexosaminidase release and TNF-α release were made by stimulating the CBMC with 1 µg/ml of goat anti-human IgE (Vector Laboratories) for 30 minutes or 4 hours, respectively. β-hexosaminidase was measured in the supernatant and in the sonicated cell pellets and its net release calculated. For TNF-α determination, the cell-free supernatants were collected by centrifugation and frozen at −80°C until determination of mediator content by the use of a specific ELISA kit according to manufacturer's instructions (Coulter, France). All assays were performed in duplicate and counts were repeated twice for each well.
Human CBMC were produced by long-term culture of CD34+ progenitors purified from normal cord-blood. […] At the beginning of the culture, rhIL-3 (1 ng/ml) (R&D Systems Europe, France) was also added to induce maximal expansion of haematopoietic progenitors. After 3 days the IL-3 was removed and 4 days later cells were transferred to a complete serum-free medium containing rmSCF at 100 ng/ml, which was renewed every 7 days thereafter. After 8 weeks in culture ≥99% of the cells were identified as being mast cells by May-Grünwald-Giemsa staining of cytocentrifuged samples.

[4] = molecular target: Epidermal growth factor receptor (Homo sapiens, UniProt P00533); assay: Ba/F3 cell proliferation (WST-1), EGFR; conditions: Ba/F3 cells expressing the enzyme, read-out: Cell-based assay IC50, Epidermal growth factor receptor
PDGFRβ = PDGFRβ (Homo sapiens, UniProt P09619); assay: Ba/F3 cell proliferation (WST-1), PDGFRβ; set-up: expressed in transfected cells; host or cells: Ba/F3 (general description of the cell system; not repeated for this kinase); conditions: Ba/F3 cells expressing the enzyme, read-out: Cell-based assay IC50, PDGFRβ
[5] = molecular target: T5, Proline-rich Tyrosine kinase (FAK2/PYK2) (Homo sapiens, UniProt Q14289); assay: Recombinant kinase ELISA assay, PYK2; type: biochemical; conditions: recombinant human enzyme; ELISA-based assay, poly(Glu,Tyr 4:1) substrate
T5 construct: PYK2 (2-1006; BC042599); 6xHN (N); made in house; host or cells: baculovirus, Sf9 insect cells
Protocol: as §1, §2

[6] = system: Salmonella typhimurium and Escherichia coli; assay: Bacterial reverse mutation test; conditions: our unpublished results

T5 sequence (Q14289 2-1006): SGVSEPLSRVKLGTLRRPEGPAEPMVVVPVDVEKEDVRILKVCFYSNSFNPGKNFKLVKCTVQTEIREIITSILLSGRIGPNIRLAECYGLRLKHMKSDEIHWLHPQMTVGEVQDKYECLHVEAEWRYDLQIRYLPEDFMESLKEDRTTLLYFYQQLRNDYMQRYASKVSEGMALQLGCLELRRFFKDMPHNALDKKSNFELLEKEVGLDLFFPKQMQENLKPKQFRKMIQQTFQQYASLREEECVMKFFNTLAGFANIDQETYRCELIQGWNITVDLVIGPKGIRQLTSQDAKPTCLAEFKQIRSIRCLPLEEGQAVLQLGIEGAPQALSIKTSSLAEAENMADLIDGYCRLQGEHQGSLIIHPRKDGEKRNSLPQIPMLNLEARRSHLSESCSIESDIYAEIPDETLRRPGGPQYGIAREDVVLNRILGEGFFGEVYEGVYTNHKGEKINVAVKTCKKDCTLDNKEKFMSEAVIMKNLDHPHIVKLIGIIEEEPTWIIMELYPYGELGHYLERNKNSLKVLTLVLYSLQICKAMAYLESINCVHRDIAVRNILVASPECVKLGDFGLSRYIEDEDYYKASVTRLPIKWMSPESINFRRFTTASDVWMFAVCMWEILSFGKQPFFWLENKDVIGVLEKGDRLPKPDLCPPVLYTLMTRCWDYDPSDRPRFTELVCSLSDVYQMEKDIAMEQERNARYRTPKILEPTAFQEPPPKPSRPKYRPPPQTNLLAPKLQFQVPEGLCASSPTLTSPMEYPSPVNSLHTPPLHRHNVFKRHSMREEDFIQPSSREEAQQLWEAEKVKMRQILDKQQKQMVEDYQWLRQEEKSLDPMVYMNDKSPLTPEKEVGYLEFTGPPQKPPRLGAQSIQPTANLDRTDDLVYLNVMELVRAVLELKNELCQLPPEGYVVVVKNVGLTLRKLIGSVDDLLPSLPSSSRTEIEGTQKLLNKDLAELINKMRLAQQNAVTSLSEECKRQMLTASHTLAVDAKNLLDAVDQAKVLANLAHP
T4 sequence (P05532 with tags, fused parts or gaps isoform P05532-2 DEL547-555): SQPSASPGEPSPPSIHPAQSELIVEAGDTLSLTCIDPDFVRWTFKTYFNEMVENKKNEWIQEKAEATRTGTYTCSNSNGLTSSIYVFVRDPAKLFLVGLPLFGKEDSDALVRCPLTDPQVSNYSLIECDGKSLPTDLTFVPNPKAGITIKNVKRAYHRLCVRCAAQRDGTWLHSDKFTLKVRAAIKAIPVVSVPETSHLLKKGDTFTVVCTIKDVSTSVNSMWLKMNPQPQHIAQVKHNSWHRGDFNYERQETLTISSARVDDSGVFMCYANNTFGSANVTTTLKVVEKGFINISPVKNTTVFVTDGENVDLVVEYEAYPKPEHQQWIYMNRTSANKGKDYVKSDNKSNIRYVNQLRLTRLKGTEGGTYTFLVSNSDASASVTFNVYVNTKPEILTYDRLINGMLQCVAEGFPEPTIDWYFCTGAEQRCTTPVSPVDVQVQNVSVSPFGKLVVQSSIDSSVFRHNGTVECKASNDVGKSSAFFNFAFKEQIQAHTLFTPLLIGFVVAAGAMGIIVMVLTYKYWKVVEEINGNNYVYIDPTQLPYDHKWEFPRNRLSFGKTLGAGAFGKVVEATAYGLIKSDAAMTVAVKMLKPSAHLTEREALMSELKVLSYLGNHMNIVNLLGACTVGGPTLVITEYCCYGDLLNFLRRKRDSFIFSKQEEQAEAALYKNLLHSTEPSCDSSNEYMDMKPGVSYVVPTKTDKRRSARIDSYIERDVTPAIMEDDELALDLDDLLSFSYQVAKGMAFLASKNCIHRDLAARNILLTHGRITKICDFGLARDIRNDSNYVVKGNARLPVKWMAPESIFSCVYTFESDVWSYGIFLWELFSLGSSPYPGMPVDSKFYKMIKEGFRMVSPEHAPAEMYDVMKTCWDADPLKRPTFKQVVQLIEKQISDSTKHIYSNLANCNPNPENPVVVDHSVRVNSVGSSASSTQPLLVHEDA
T3 sequence (P07333 538-972): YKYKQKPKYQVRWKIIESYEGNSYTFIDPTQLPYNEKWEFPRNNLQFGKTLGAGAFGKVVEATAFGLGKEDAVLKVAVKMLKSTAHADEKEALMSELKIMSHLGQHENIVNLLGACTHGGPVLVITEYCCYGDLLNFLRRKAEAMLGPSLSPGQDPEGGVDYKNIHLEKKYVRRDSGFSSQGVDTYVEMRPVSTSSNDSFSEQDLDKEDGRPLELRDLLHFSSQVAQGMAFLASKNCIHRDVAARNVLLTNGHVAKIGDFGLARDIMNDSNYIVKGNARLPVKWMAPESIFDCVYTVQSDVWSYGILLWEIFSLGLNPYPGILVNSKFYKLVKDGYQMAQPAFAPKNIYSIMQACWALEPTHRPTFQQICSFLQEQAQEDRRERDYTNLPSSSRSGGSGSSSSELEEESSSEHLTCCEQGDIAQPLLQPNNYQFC
Chain of PDGFRβ (P09619 33-1106): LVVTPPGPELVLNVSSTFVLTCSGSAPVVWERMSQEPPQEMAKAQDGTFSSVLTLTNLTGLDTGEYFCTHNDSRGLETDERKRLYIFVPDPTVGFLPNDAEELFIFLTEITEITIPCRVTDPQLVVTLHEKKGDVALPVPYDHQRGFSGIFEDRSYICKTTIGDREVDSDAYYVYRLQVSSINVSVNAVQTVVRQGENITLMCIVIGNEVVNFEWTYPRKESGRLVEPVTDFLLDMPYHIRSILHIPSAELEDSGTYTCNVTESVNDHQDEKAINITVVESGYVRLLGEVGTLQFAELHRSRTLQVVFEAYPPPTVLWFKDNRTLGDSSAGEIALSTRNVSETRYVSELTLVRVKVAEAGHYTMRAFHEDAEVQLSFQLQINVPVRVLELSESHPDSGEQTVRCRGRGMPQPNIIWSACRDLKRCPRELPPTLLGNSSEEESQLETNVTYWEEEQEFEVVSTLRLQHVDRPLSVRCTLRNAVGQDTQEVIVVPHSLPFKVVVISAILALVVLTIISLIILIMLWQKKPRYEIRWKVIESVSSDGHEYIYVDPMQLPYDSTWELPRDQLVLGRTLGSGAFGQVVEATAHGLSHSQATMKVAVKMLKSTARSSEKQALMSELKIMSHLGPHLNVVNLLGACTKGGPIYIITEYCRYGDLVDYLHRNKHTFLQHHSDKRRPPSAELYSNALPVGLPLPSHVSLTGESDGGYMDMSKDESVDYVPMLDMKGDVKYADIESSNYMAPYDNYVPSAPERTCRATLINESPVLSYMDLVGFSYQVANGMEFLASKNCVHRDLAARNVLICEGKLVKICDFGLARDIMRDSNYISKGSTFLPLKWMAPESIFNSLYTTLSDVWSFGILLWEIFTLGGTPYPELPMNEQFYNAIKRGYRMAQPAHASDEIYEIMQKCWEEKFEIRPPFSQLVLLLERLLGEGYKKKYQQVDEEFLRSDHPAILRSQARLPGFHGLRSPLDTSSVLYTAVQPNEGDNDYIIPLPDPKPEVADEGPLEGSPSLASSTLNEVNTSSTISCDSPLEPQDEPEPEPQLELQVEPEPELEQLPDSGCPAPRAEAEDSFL

Structure (SMILES): CS(=O)(=O)O.CS(=O)(=O)O.Cc1ccc(NC(=O)c2ccc(CN3CCN(C)CC3)cc2)cc1Nc1nc(-c2cccnc2)cs1 [masitinib, 4-(4-methylpiperazin-1-ylmethyl)-N-[4-methyl-3-(4-pyridin-3ylthiazol-2-ylamino)phenyl]benzamide-mesylate methane sulfonic acid salt]
- IC50 [1]: 7 ± 1.9 µM
- IC50 (Bmx): > 10 µM
- IC50 (c-Fms): 1.48 ± 0.54 µM
- IC50 (KIT Δ27 (murine)): 0.005 ± 0.0003 µM
- IC50 [2]: > 10 µM
- inhibition at 0.1 µM ([3]; 0.1 µM): 16%
- inhibition at 1 µM ([3]; 1.0 µM): 40%
- inhibition at 10 µM ([3]; 10 µM): 68%
- IC50 [4]: 7 ± 0.8 µM
- IC50 (PDGFRβ): 0.05 ± 0.02 µM
- IC50 [5]: > 10 µM
- mutagenicity in bacterial reverse mutation tests [6]: not mutagenic
